Test: in vitro
Conditions: human, hek293t cells

Structure (SMILES)	viability at 48 h, 25 µM [%]
C=CC(=O)NC[C@@H]1CCCN1c1ccccc1 [3-E03, N-{[(2S)-1-phenylpyrrolidin-2-yl]methyl}prop-2-enamide]	60.1
C=CC(=O)Nc1ccc(C(=O)N2CCC(C)(C)S(=O)(=O)CC2)cc1 [3-E04, N-[4-(7,7-dimethyl-1,1-dioxo-1lambda6,4-thiazepane-4-carbonyl)phenyl]prop-2-enamide]	78.6
C=CC(=O)N1CCC(c2nc(C)no2)CC1 [3-E05, 1-[4-(3-methyl-1,2,4-oxadiazol-5-yl)piperidin-1-yl]prop-2-en-1-one]	49.7
C=CC(=O)N1CCC(C(=O)N2CCOc3cc(F)ccc3C2)CC1 [3-E06, 1-[4-(8-fluoro-2,3,4,5-tetrahydro-1,4-benzoxazepine-4-carbonyl)piperidin-1-yl]prop-2-en-1-one]	67.9
C=CC(=O)N1CCC(C(=O)NCCc2cc[nH]n2)CC1 [3-E07, 1-(prop-2-enoyl)-N-[2-(1H-pyrazol-3-yl)ethyl]piperidine-4-carboxamide]	34.2
C=CC(=O)N1CCC(C(=O)N2CCC(OC)(C(F)(F)F)CC2)CC1 [3-E08, 1-{4-[4-methoxy-4-(trifluoromethyl)piperidine-1-carbonyl]piperidin-1-yl}prop-2-en-1-one]	98.2
C=CC(=O)N1CCOC(c2cccc(OC)c2)C1 (stereo not drawn) [3-E09, 1-[2-(3-methoxyphenyl)morpholin-4-yl]prop-2-en-1-one]	34.5
C=CC(=O)NCCC(=O)N1CCCC1c1cn(C)nc1C (stereo not drawn) [3-E10, N-{3-[2-(1,3-dimethyl-1H-pyrazol-4-yl)pyrrolidin-1-yl]-3-oxopropyl}prop-2-enamide]	95.2
C=CC(=O)N1CCCC2(CCCOC2)C1 (stereo not drawn) [3-E11, 1-{2-oxa-8-azaspiro[5.5]undecan-8-yl}prop-2-en-1-one]	46.3
C=CC(=O)N1CCC([C@@H](C)O)CC1 [3-E12, 1-{4-[(1R)-1-hydroxyethyl]piperidin-1-yl}prop-2-en-1-one]	104
C=CC(=O)Nc1ccc(C(=O)N2CCCCC2c2n[nH]c(C)n2)cc1 (stereo not drawn) [3-E13, N-{4-[2-(5-methyl-1H-1,2,4-triazol-3-yl)piperidine-1-carbonyl]phenyl}prop-2-enamide]	34.9
C=CC(=O)N(C)CC(=O)NC(C)(C)c1nc(C)cs1 [3-E14, N-methyl-N-({[2-(4-methyl-1,3-thiazol-2-yl)propan-2-yl]carbamoyl}methyl)prop-2-enamide]	87.9
C=CC(=O)N1CCCC(CNC(C)=O)C1 (stereo not drawn) [3-E15, N-{[1-(prop-2-enoyl)piperidin-3-yl]methyl}acetamide]	46.4
C=CC(=O)N1CCC(C(=O)Nc2ccc3c(c2)CCN3C(N)=O)CC1 [3-E16, 5-[1-(prop-2-enoyl)piperidine-4-amido]-2,3-dihydro-1H-indole-1-carboxamide]	101
C=CC(=O)N1CCC(C(=O)N[C@]2(C(=O)OC)CC[C@@H](C)CC2)CC1 [3-E17, methyl (1r,4r)-4-methyl-1-[1-(prop-2-enoyl)piperidine-4-amido]cyclohexane-1-carboxylate]	57
C=CC(=O)NCc1ncoc1C(F)(F)F [3-E18, N-{[5-(trifluoromethyl)-1,3-oxazol-4-yl]methyl}prop-2-enamide]	93.1
C=CC(=O)NCc1ccc(C(=O)N2CCCC(c3nnc[nH]3)C2)cc1 (stereo not drawn) [3-E19, N-({4-[3-(4H-1,2,4-triazol-3-yl)piperidine-1-carbonyl]phenyl}methyl)prop-2-enamide]	34.3
C=CC(=O)N1CCC(C(=O)Nc2ccc(N)c([N+](=O)[O-])c2)CC1 [3-E20, N-(4-amino-3-nitrophenyl)-1-(prop-2-enoyl)piperidine-4-carboxamide]	56.7

Structure (SMILES)	viability at 48 h, 25 µM [%]
C=CC(=O)N(CC)CC(=O)N1CCNC(=O)CC1c1ccccc1 (stereo not drawn) [3-E21, N-ethyl-N-[2-oxo-2-(5-oxo-7-phenyl-1,4-diazepan-1-yl)ethyl]prop-2-enamide]	33.1
C=CC(=O)N1CCC(C(=O)N[C@@H](C)c2ccc(Cl)s2)CC1 [3-E22, N-[(1S)-1-(5-chlorothiophen-2-yl)ethyl]-1-(prop-2-enoyl)piperidine-4-carboxamide]	65.7
C=CC(=O)N(CC)CC(=O)N1CCCC(c2nccn2C)C1 (stereo not drawn) [3-F03, N-ethyl-N-{2-[3-(1-methyl-1H-imidazol-2-yl)piperidin-1-yl]-2-oxoethyl}prop-2-enamide]	106
C=CC(=O)N1CCCCC1c1nc2ccccc2n1C (stereo not drawn) [3-F04, 1-[2-(1-methyl-1H-1,3-benzodiazol-2-yl)piperidin-1-yl]prop-2-en-1-one]	84.2
C=CC(=O)N1CCC(C(=O)Nc2cccc(NC(=O)C(C)C)c2)CC1 [3-F05, N-[3-(2-methylpropanamido)phenyl]-1-(prop-2-enoyl)piperidine-4-carboxamide]	53.3
C=CC(=O)NCCC(=O)N1CCN(c2nc(C)cs2)CC1 [3-F07, N-{3-[4-(4-methyl-1,3-thiazol-2-yl)piperazin-1-yl]-3-oxopropyl}prop-2-enamide]	52.1
C=CC(=O)NCCC(=O)N1CCc2cc(C)c([N+](=O)[O-])cc21 [3-F08, N-[3-(5-methyl-6-nitro-2,3-dihydro-1H-indol-1-yl)-3-oxopropyl]prop-2-enamide]	82.7
C=CC(=O)NC(C)c1ccc2c(c1)CCC2 (stereo not drawn) [3-F09, N-[1-(2,3-dihydro-1H-inden-5-yl)ethyl]prop-2-enamide]	72.3
C=CC(=O)NCc1nnc(COC)[nH]1 [3-F10, N-{[5-(methoxymethyl)-4H-1,2,4-triazol-3-yl]methyl}prop-2-enamide]	102
C=CC(=O)NCc1cccc(CNS(C)(=O)=O)c1 [3-F11, N-{[3-(methanesulfonamidomethyl)phenyl]methyl}prop-2-enamide]	95.9
C=CC(=O)N1CCC(C(=O)N[C@H]2CCOc3c(F)cccc32)CC1 [3-F12, N-[(4S)-8-fluoro-3,4-dihydro-2H-1-benzopyran-4-yl]-1-(prop-2-enoyl)piperidine-4-carboxamide]	64.9
C=CC(=O)N(CCC(N)=O)C1CCOc2ccccc21 (stereo not drawn) [3-F13, N-(2-carbamoylethyl)-N-(3,4-dihydro-2H-1-benzopyran-4-yl)prop-2-enamide]	69.2
C=CC(=O)Nc1cc(C)cc(S(C)(=O)=O)c1 [3-F14, N-(3-methanesulfonyl-5-methylphenyl)prop-2-enamide]	94.1
C=CC(=O)N(C)Cc1cn(C)nc1C(C)C [3-F15, N-methyl-N-{[1-methyl-3-(propan-2-yl)-1H-pyrazol-4-yl]methyl}prop-2-enamide]	80.7
C=CC(=O)Nc1ccccc1CNS(C)(=O)=O [3-F16, N-[2-(methanesulfonamidomethyl)phenyl]prop-2-enamide]	104
C=CC(=O)NC(Cn1cncn1)c1ccccc1 (stereo not drawn) [3-F17, N-[1-phenyl-2-(1H-1,2,4-triazol-1-yl)ethyl]prop-2-enamide]	71.9
C=CC(=O)NC1CCC(S(C)(=O)=O)C1 (stereo not drawn) [3-F18, N-(3-methanesulfonylcyclopentyl)prop-2-enamide]	94.3
C=CC(=O)NCC1CCCN1S(=O)(=O)CC (stereo not drawn) [3-F19, N-{[1-(ethanesulfonyl)pyrrolidin-2-yl]methyl}prop-2-enamide]	68.6

Reference: paper PMC11995724, “Antibiotic target discovery by integrated phenotypic and activity-based profiling of electrophilic fragments” (Cell chemical biology, 2025)
